# Source: PubChem BioAssay AID1959 (Broad Institute, 2009)
# Active and inactive are the calls of the source.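 How the source made its calls: active means growth-inhibition EC50 no more than tenfold above the top tested dose; inconclusive means flat fit between 30% and 70% inhibition, or unreliable fit; inactive means EC50 more than tenfold above the top tested dose.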
# Test system: E. coli NEB5alpha growth, BacTiter-Glo luminescence, 4 h
# Assay: Escherichia coli growth inhibition, dose response, counter-screen for MEX-5/POS-1 RNA-binding inhibitor project, luminescence, NEB5alpha (AID 1959);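 further: pUC19-transformed ampicillin-resistant cells grown in LB with ampicillin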
row,SMILES,EC50
1,CCN(CC)c1ccc(/C=C2\C(=O)NC(=S)N(C)C2=O)o1,> 11 µM (inactive)
2,Cn1c(=O)c2[nH]c(N=NNc3ccccc3F)nc2n(C)c1=O,> 11 µM (inactive)
3,Cc1cc(/C=N/Nc2ccc([N+](=O)[O-])cn2)c(C)n1-c1ccc(C(=O)O)cc1,> 11 µM (inactive)
4,O=C(O)c1ccc2c(c1)C1C=CCC1C(c1ccncc1)N2 (stereo unspecified),> 11 µM (inactive)
5,COC(=O)c1ccc(-n2c(C)cc(C(=O)COC(=O)CNS(=O)(=O)c3ccc(C)cc3)c2C)cc1,> 11 µM (inactive)
6,CC(=O)N1CCc2c(sc(NC(=O)C3CCCCC3)c2C(N)=O)C1,> 11 µM (inactive)
7,O=C(O)C1Nc2c(C(=O)N3CCOCC3)cccc2C2C=CCC12 (stereo unspecified),> 11 µM (inactive)
8,COc1ccccc1N1C(=O)S/C(=C\c2ccc(C)s2)C1=O,> 11 µM (inactive)
9,CSc1sccc1/C=C(/C#N)C(=O)c1ccco1,> 11 µM (inactive)
10,Nc1ncnc(NNC(=O)CNC(=O)c2c(F)cccc2Cl)c1[N+](=O)[O-],> 11 µM (inactive)
11,CCOc1cc(C2C(C#N)=C(N)OC3=C2C(=O)CC(C)(C)C3)cc([N+](=O)[O-])c1O (stereo unspecified),> 11 µM (inactive)
12,O=C1NC(=S)N(c2ccccc2)C(=O)/C1=C/c1ccco1,> 11 µM (inactive)
13,N=c1c(C(=O)NC2CCCCC2)cc2c(=O)n3ccccc3nc2n1CCc1ccccc1,> 11 µM (inactive)
14,COc1c(O)cc2oc(-c3ccc(O)c(O)c3)cc(=O)c2c1O,> 11 µM (inactive)
15,Brc1cc2c(cc1C1Nc3ccccc3C3C=CCC31)OCO2 (stereo unspecified),> 11 µM (inactive)
16,Cc1c(N=Cc2c(O)n(C)c(=O)c3ccccc23)c(=O)n(-c2ccccc2)n1C,> 11 µM (inactive)
17,CCN(CC)c1ccc2cc(C#N)c(=O)oc2c1,> 11 µM (inactive)
18,Cn1c(N=Nc2ccc(N3CCOCC3)cc2)[n+](C)c2ccccc21,> 11 µM (inactive)
19,CCOC(=O)C1CCN(C(=O)CCC(=O)NNc2nc3ccccc3c3nc(C)nn23)CC1,> 11 µM (inactive)
20,O=C1C=C(Nc2cccc3cccnc23)c2ccccc2C1=O,> 11 µM (inactive)
21,COc1ccc(S(=O)(=O)C(C#N)c2nc3ccccc3nc2N2CCC(C)CC2)cc1 (stereo unspecified),> 11 µM (inactive)
22,Cc1ccc(-c2nnc(Nc3ccc(CC(N)=O)cc3)c3ccccc23)cc1S(N)(=O)=O,> 11 µM (inactive)
23,Nc1cccc2c1C(=O)N(Cc1nnc(-c3ccccc3Br)o1)C2=O,> 11 µM (inactive)
24,N#C/C(=N\Nc1ccc(Cl)cc1)C(=O)c1ccsc1,> 11 µM (inactive)

row,SMILES,EC50
1,COc1ccc(N=Cc2c(O)n(Cc3ccccc3)c(=S)[nH]c2=O)c(OC)c1,> 11 µM (inactive)
2,Cc1c(C(=O)O)cccc1-n1c(C)cc(/C=N/Nc2ccc([N+](=O)[O-])cn2)c1C,> 11 µM (inactive)
3,CCC(=O)Nc1cc(C)c(NC(=O)CCc2ccccc2)cn1,> 11 µM (inactive)
4,NC1=NC(=O)/C(=C/c2ccc(-c3ccc(S(N)(=O)=O)cc3)o2)S1,> 11 µM (inactive)
5,N#Cc1ccccc1CN1C(=O)S/C(=C/c2cccn2-c2cccc(C(=O)O)c2)C1=O,> 11 µM (inactive)
6,CCOc1ccc(S(=O)(=O)Nc2cc(SCC(=O)O)c(O)c3ccccc23)cc1,> 11 µM (inactive)
7,CCOP(=O)(OCC)C(Nc1cccc([N+](=O)[O-])c1)c1ccccc1 (stereo unspecified),> 11 µM (inactive)
8,CC1CCN(c2nc3ccccc3nc2C(C#N)C(=O)NC2CCCCC2)CC1 (stereo unspecified),> 11 µM (inactive)
9,CCCCCCn1c(O)c(C=Nc2ccccc2N2CCOCC2)c(=O)[nH]c1=S,> 11 µM (inactive)
10,FC(F)(F)c1ccc2c(c1)C1C=CCC1C(c1ccncc1)N2 (stereo unspecified),> 11 µM (inactive)
11,N=c1c(C(=O)NC2CCCC2)cc2c(=O)n3ccccc3nc2n1Cc1ccccc1,> 11 µM (inactive)
12,Oc1ccc(-c2cn3c(n2)SCC3)cc1O,> 11 µM (inactive)
13,O=c1[nH]nc(CNc2ccc(O)cc2)c2ccccc12,> 11 µM (inactive)
14,COc1cccc(C(=O)NCC(=O)NNc2ncnc(N)c2[N+](=O)[O-])c1,> 11 µM (inactive)
15,COc1ccc(Nc2ncnc3nc[nH]c23)cc1OC,> 11 µM (inactive)
16,C=CCN1C(=O)/C(=C2/Sc3ccc(OC)cc3N2CC)SC1=S,> 11 µM (inactive)
17,CCC(=O)OC1(C)C(=O)C=C2C=C(c3ccc(C#N)cc3)OC=C2C1=O (stereo unspecified),> 11 µM (inactive)
18,Cc1cc([N+](=O)[O-])nn1CC(=O)NNC(=S)Nc1ccc([N+](=O)[O-])cc1,> 11 µM (inactive)
19,CC(C)(C)OC(=O)NC(Cc1ccccc1)C(=O)N1CCC(C(=O)NCC(=O)Nc2ccc(F)cc2)CC1 (stereo unspecified),> 11 µM (inactive)
20,COc1ccc(-c2nnc(-c3cc4c(ccc5ccccc54)oc3=O)o2)cc1,> 11 µM (inactive)
21,COc1ccc(C2C(C(=O)c3ccco3)=C(O)C(=O)N2c2nnc(C)s2)cc1OC (stereo unspecified),> 11 µM (inactive)
22,COC(=O)c1c(NC(=O)CC2Nc3ccccc3NC2=O)sc(C)c1C (stereo unspecified),> 11 µM (inactive)
23,Cc1ccc(N=Cc2nc(-c3ccc(C)cc3)oc2O)cc1,> 11 µM (inactive)
24,CCOC(=O)N1CCN(C(=O)c2ccc3c(c2)NC(=O)/C(=C\c2ccc(OC)c(OC)c2)S3)CC1,> 11 µM (inactive)

row,SMILES,EC50
1,Oc1ccc(C2=CSC3=NCCN23)cc1O,> 11 µM (inactive)
2,CC1CCCN(c2nc3ccccc3nc2C(C#N)S(=O)(=O)c2cccs2)C1 (stereo unspecified),> 11 µM (inactive)
3,Cc1n[nH]c(=O)nc1N/N=C/c1ccc(O)c([N+](=O)[O-])c1,> 11 µM (inactive)
4,NC(=O)c1ccsc1N,> 11 µM (inactive)
5,CN(C)c1ccc(-c2nnc(-c3ccc(S(=O)(=O)C(F)F)cc3)o2)cc1,> 11 µM (inactive)
6,Brc1ccc(C2=CC(c3ccco3)n3ncnc3N2)cc1 (stereo unspecified),> 11 µM (inactive)
7,Cc1ccc(/C=C2/Sc3ccc(C(=O)N4CCC5(CC4)OCCO5)cc3NC2=O)cc1,> 11 µM (inactive)
8,CC(=O)N(C)c1ccc(N=NC2C(=O)N(C(N)=S)N=C2C)cc1 (stereo unspecified),> 11 µM (inactive)
9,O=C(COC(=O)CCc1c[nH]c(=O)[nH]1)Nc1ccccc1Cl,> 11 µM (inactive)
10,Cc1nn(C(C)C(=O)N2CCOCC2)c(=O)c2nn(-c3ccccc3)c(C)c12 (stereo unspecified),> 11 µM (inactive)
11,CCCn1c(=N)c(C(=O)NCC2CCCO2)cc2c(=O)n3cccc(C)c3nc21 (stereo unspecified),> 11 µM (inactive)
12,O=c1ccc2[n+]([O-])c3ccc(O)cc3oc-2c1,> 11 µM (inactive)
13,COc1ccc(-c2nc(CS(=O)CC(=O)NCc3ccccn3)c(C)o2)cc1 (stereo unspecified),> 11 µM (inactive)
14,COc1cc(C(CC(=O)N2CCCC2)c2c(OC)cc(OC)c3ccc(=O)oc23)cc(OC)c1OC (stereo unspecified),> 11 µM (inactive)
15,Cc1ccc(/C=N/NC(=O)c2nnn(-c3nonc3N)c2-c2cccs2)cc1,> 11 µM (inactive)
16,COCc1cc(=O)n2[nH]c(-c3cccs3)cc2n1,> 11 µM (inactive)
17,COc1ccccc1NCC(=O)N/N=C/c1c(O)ccc2ccccc12,> 11 µM (inactive)
18,O=C(O)c1ccc(-n2cccc2/C=C2/NC(=O)N(c3ccccc3)C2=O)cc1,> 11 µM (inactive)
19,N#C/C(=C(/O)c1cc2ccccc2o1)c1nc2ccccc2s1,> 11 µM (inactive)
20,NC(=O)C1(N2CCCCC2)CCN(Cc2nc(-c3cccs3)no2)CC1,> 11 µM (inactive)
21,Cn1ncc(Cl)c1C(=O)N/N=C/c1cccc(OC2CSC2)c1,> 11 µM (inactive)
22,COC(=O)C1CSc2[nH]c(=O)sc2C1c1ccc(OC)c(OC)c1 (stereo unspecified),> 11 µM (inactive)
23,COc1ccc(N/C=C\C(=O)c2ccc(C)cc2)cc1OC,> 11 µM (inactive)
24,CCn1c(C)cc(/C=C2\C(=O)NC(=O)N(c3ccccc3C)C2=O)c1C,> 11 µM (inactive)

row,SMILES,EC50
1,Clc1ccc(C2=CC(c3ccco3)n3ncnc3N2)cc1 (stereo unspecified),> 11 µM (inactive)
2,CC1=NN(C(N)=S)C(=O)C1N=Nc1cccc(C(=O)O)c1 (stereo unspecified),> 11 µM (inactive)
3,O=c1[nH]c(=O)n(-c2cccc(Cl)c2)c(O)c1/C=N/c1ccccn1,> 11 µM (inactive)
4,O=C(N/N=C/c1cccnc1)c1cc(O)c(O)c(O)c1,> 11 µM (inactive)
5,Cc1[nH][nH]c(=O)c1C(c1ccc(-c2ccccc2C(=O)O)o1)c1c(C)[nH][nH]c1=O,> 11 µM (inactive)
6,Cn1c(O)c(/C=C2\C=Nc3ccccc32)c(=O)n(C)c1=O,> 11 µM (inactive)
7,Cc1c(Cl)cccc1NC(=S)N1CCN(C(=O)C2CCCO2)CC1 (stereo unspecified),> 11 µM (inactive)
8,CC(=O)Nc1ccc(N=Cc2nc(-c3ccc(C)cc3)oc2O)cc1,> 11 µM (inactive)
9,COC(=O)C1CSc2[nH]c(=O)sc2C1c1ccccc1 (stereo unspecified),> 11 µM (inactive)
10,O=C(O)c1cccc(-n2cccc2/C=N/O)c1,> 11 µM (inactive)
11,O=C1NC(=O)[C@@H]2C3c4ccccc4C=CN3[C@H](C(=O)c3cccs3)[C@H]12 (stereo partly specified),> 11 µM (inactive)
12,CCOc1ccc(S(=O)(=O)Nc2cc(Sc3ncn[nH]3)c3oc(=O)sc3c2)cc1,> 11 µM (inactive)
13,O=C(NNC(=O)c1ccccc1[N+](=O)[O-])c1cnccn1,> 11 µM (inactive)
14,Cc1ccc(NC(=O)CSc2nccc(=O)[nH]2)c(S(=O)(=O)N2CCOCC2)c1,> 11 µM (inactive)
15,COc1ccc(C(=O)c2sc3nc(C)cc(-c4cccs4)c3c2N)cc1,> 11 µM (inactive)
16,COc1cc(C(=O)NC(c2ccccc2)c2ccccc2)cc(OC)c1C,> 11 µM (inactive)
17,O=C1Nc2cc(Cl)cnc2N2CCCC12 (stereo unspecified),> 11 µM (inactive)
18,Nc1nnc(C(=O)c2ccccc2N)s1,> 11 µM (inactive)
19,CCc1ccc(/C=C2/SC(=S)N(CCC(=O)Nc3cccnc3)C2=O)cc1,> 11 µM (inactive)
20,Cc1cc(C=C2C(=O)c3ccccc3C2=O)c(C)n1-c1ccc(C(=O)O)cc1,> 11 µM (inactive)
21,CCOCCCn1c(=NC(=O)c2ccc(OC)c(OC)c2)c(C#N)cc2c(=O)n3cccc(C)c3nc21,> 11 µM (inactive)
22,CCOc1ccc2c(c1)/C(=C(\C(Cl)=C(Cl)Cl)[N+](=O)[O-])N2,> 11 µM (inactive)
23,CCOC(=O)c1c(/N=C/c2c(O)n(-c3cccc(C)c3)c(=O)[nH]c2=O)sc2c1CCCC2,> 11 µM (inactive)
24,COCCNC(=O)C1Nc2ccc(C(F)(F)F)cc2C2C=CCC12 (stereo unspecified),> 11 µM (inactive)
